# Data reported in ChEMBL document CHEMBL1123683 (J Med Chem, 1987).
# Legend:
# [1] = molecular target: Prostaglandin G/H synthase 1 (Ovis aries) (UniProt P05979); experiment: Inhibition of microsomal PGH synthase isolated from sheep seminal vesicles (SSV) estimated as rate of oxygen consumption in presence of 500 uM of the compound; set-up: scale not given: the % may be the effect or the level left
# [2] = molecular target: Prostaglandin G/H synthase 1 (Ovis aries) (UniProt P05979); experiment: Inhibition of microsomal PGH synthase isolated from sheep seminal vesicles (SSV) estimated as rate of oxygen consumption in presence of 100 uM of the compound; set-up: scale not given: the % may be the effect or the level left
# [3] = molecular target: Prostaglandin G/H synthase 1 (Ovis aries) (UniProt P05979); experiment: Inhibition of microsomal PGH synthase isolated from sheep seminal vesicles (SSV) estimated as rate of oxygen consumption in presence of 500 uM of the compound; Compound was found to be insoluble
# [4] = molecular target: Prostaglandin G/H synthase 1 (Ovis aries) (UniProt P05979); experiment: Inhibition of microsomal PGH synthase isolated from sheep seminal vesicles (SSV) estimated as rate of oxygen consumption in presence of 100 uM of the compound
# [5] = molecular target: Prostaglandin G/H synthase 1 (Ovis aries) (UniProt P05979); conditions: at 500 µM
# [6] = molecular target: Prostaglandin G/H synthase 1 (Ovis aries) (UniProt P05979); experiment: Inhibition of PGH synthase in sheep seminal vesicle microsomes
# Sequence of Prostaglandin G/H synthase 1 (Ovis aries) (P05979 whole entry, looked up): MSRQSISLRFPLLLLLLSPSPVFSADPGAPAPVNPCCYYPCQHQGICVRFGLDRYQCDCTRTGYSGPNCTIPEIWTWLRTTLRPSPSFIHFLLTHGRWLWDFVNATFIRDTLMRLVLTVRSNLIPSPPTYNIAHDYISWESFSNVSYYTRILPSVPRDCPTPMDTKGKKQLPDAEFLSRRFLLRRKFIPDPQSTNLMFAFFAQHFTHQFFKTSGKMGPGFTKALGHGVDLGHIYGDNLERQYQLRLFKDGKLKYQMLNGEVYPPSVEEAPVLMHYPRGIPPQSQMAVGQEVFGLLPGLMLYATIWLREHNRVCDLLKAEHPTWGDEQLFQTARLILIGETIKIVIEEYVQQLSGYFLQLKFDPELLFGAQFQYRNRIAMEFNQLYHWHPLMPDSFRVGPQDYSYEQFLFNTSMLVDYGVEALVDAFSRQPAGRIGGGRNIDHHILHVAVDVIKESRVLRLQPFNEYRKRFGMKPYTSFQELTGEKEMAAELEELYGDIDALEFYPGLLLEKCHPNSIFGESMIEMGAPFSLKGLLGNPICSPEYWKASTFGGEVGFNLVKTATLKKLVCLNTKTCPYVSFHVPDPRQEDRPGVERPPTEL
Compound,Control [1],Control [2],Control [3],"Oxygen consumption rate, % of control [4]",Control [5],IC50 [6]
CCCCC(C(=O)Nc1ccc([N+](=O)[O-])cc1)C(=O)Nc1ccc([N+](=O)[O-])cc1,Insoluble,126%,–,–,–,–
COc1ccc(NC(=O)CC(=O)Nc2ccc(OC)cc2)cc1,–,–,Insoluble,78%,–,–
O=C(CC(=O)Nc1cccc(O)c1)Nc1cccc(O)c1,–,–,–,–,86%,–
CCCCC(C(=O)Nc1ccc(Cl)cc1)C(=O)Nc1ccc(Cl)cc1,–,96%,Insoluble,–,–,–
CCCCC(C(=O)Nc1ccc(O)cc1C)C(=O)Nc1ccc(O)cc1C,31%,57%,–,–,–,150 µM
CCCCC(C(=O)Nc1ccc(O)cc1)C(=O)Nc1ccc(O)cc1,–,76%,–,–,36%,290 µM
Cc1ccc(NC(=O)CC(=O)Nc2ccc(C)cc2)cc1,66%,–,–,–,–,–
O=C(CC(=O)Nc1ccc(O)cc1)Nc1ccc(O)cc1,–,–,–,67%,25%,190 µM
CCCCC(C(=O)Nc1ccccc1)C(=O)Nc1ccccc1,–,–,Insoluble,105%,–,–
O=C(CCC(=O)Nc1ccc(O)cc1)Nc1ccc(O)cc1,27%,–,–,79%,–,240 µM
O=C(CC(=O)Nc1ccc(Cl)cc1)Nc1ccc(Cl)cc1,–,–,–,64%,48%,420 µM
O=C(CC(=O)Nc1ccccc1)Nc1ccccc1,–,65%,–,–,55%,–
CCCCC(C(=O)Nc1ccc(OC)cc1)C(=O)Nc1ccc(OC)cc1,–,–,Insoluble,102%,–,–
O=C(CCCCC(=O)Nc1ccc(O)cc1)Nc1ccc(O)cc1,–,67%,–,–,26%,230 µM
O=C(CC(=O)Nc1ccc([N+](=O)[O-])cc1)Nc1ccc([N+](=O)[O-])cc1,88%,–,–,–,–,–
CCCCC(C(=O)Nc1ccc(C)cc1)C(=O)Nc1ccc(C)cc1,–,–,–,–,97%,–
